The source made the active and inactive calls. The rule behind the calls is not given here.
Test system: Mus musculus
Assay: Ratio of drug uptake in liver to harderian glands of C57BL/6 mouse at 10 mg/kg, po after 6 hrs
Conditions: in vivo

| Compound | Ratio |
| --- | --- |
| O=C(O)Cn1nnc(-c2cc(-c3cn(Cc4cc(Br)c(Br)c(Br)c4)nn3)no2)n1 | 100 |
| NC(=O)c1cn(Cc2cc(Br)c(Br)c(Br)c2)nn1 | 0.4 |

Test system: not listed separately
Assay: Drug uptake in C57BL/6 mouse liver at 10 mg/kg, po after 6 hrs
Format: ADME, organism-based, C57BL6
Design: dose 10 mg/kg, route oral
Conditions: read-out: Drug uptake

| concentration at 6 h [nM] | Compound |
| --- | --- |
| 1660 | O=C(O)Cn1nnc(-c2cc(-c3cn(Cc4cc(Br)c(Br)c(Br)c4)nn3)no2)n1 |
| 330 | O=C(O)Cn1nnc(-c2cnc(-c3cn(Cc4cc(Cl)c(Cl)c(Cl)c4)nn3)s2)n1 |
| 470 | O=C(O)Cn1nnc(-c2cncc(-c3cn(Cc4cc(Br)c(Br)c(Br)c4)nn3)c2)n1 |

| Compound | concentration at 6 h [nM] |
| --- | --- |
| NC(=O)c1cn(Cc2cc(Br)c(Br)c(Br)c2)nn1 | 2690 |

Target: T1, Acyl-CoA desaturase 1 (Rattus norvegicus, UniProt P07308)
T1 sequence (P07308 whole entry): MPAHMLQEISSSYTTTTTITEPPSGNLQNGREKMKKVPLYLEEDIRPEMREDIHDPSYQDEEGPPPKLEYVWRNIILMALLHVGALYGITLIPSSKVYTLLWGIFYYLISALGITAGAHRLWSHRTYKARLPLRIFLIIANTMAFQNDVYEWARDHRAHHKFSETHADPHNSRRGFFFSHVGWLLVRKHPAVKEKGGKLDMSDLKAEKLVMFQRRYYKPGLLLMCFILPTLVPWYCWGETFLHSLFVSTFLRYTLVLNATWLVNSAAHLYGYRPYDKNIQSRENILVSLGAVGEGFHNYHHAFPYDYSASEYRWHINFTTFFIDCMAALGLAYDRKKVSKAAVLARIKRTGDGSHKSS
Assay: Inhibition of rat SCD by rat microsomal assay
Conditions: not given

| IC50 [nM] | Compound |
| --- | --- |
| 8320 | O=C(O)CCCCCc1nc(-c2cn(Cc3cc(Br)c(Br)c(Br)c3)nn2)no1 |
| 719 | O=C(O)Cn1nnc(-c2cc(-c3cn(Cc4cc(Cl)c(Cl)c(Cl)c4)nn3)ccn2)n1 |
| 911 | O=C(O)Cn1nnc(-c2cn(CCCc3cc(Br)c(Br)c(Br)c3)nn2)n1 |
| 1250 | O=C(O)Cn1nnc(-c2cnc(-c3cn(Cc4cc(Br)c(Br)c(Br)c4)nn3)cn2)n1 |
| 6 | NC(=O)c1nnn(Cc2cc(Br)c(Br)c(Br)c2)c1N |
| 5250 | O=C(O)CCCCc1nc(-c2cn(Cc3cc(Br)c(Br)c(Br)c3)nn2)no1 |
| 21 | O=C(O)Cn1nnc(-c2cc(-c3cn(Cc4cc(Br)c(Br)c(Br)c4)nn3)no2)n1 |
| > 20000 | O=C(O)Cn1nnc(-c2cn(Cc3cc(Br)c(Br)c(Br)c3)nn2)n1 |
| 1310 | O=C(O)Cn1nnc(-c2ccnc(-c3cn(Cc4cc(Cl)c(Cl)c(Cl)c4)nn3)c2)n1 |
| 552 | O=C(O)CCc1nc(-c2cn(Cc3cc(Br)c(Br)c(Br)c3)nn2)no1 |
| 19900 | O=C(O)Cn1nnc(-c2cn(CCc3cc(Br)c(Br)c(Br)c3)nn2)n1 |
| 1810 | O=C(O)Cn1nnc(-c2ccc(-c3cn(Cc4cc(Cl)c(Cl)c(Cl)c4)nn3)nn2)n1 |
| 49 | O=C(O)Cn1nnc(-c2cnc(-c3cn(Cc4cc(Cl)c(Cl)c(Cl)c4)nn3)s2)n1 |
| 343 | O=C(O)Cn1nnc(-c2cnc(-c3cn(Cc4cc(Cl)c(Cl)c(Cl)c4)nn3)nc2)n1 |
| 12 | NC(=O)c1nnn(Cc2cc(Cl)c(Cl)c(Cl)c2)c1N |
| 216 | O=C(O)CCCc1nc(-c2cn(Cc3cc(Br)c(Br)c(Br)c3)nn2)no1 |
| 56 | O=C(O)Cn1nnc(-c2cncc(-c3cn(Cc4cc(Br)c(Br)c(Br)c4)nn3)c2)n1 |

| Compound | IC50 [nM] |
| --- | --- |
| NC(=O)c1cn(Cc2cc(Br)c(Br)c(Br)c2)nn1 | 19 |

Target: T2, Stearoyl-CoA desaturase (Homo sapiens, UniProt O00767)
T2 sequence (O00767 whole entry): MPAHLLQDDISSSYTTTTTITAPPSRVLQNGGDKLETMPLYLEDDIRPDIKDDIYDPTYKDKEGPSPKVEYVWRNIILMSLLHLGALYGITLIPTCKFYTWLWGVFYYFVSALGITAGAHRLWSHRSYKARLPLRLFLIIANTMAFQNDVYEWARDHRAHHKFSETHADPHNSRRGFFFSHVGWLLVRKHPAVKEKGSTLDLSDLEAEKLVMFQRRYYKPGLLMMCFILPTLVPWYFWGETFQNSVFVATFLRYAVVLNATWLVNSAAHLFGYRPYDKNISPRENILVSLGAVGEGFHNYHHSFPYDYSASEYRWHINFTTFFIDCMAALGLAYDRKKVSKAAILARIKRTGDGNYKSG
Assay: Inhibition of SCD in human HepG2 cells assessed as conversion of [1-(14)C]-stearic acid to (14)C-oleic acid
Format: cell-based
Conditions: not given

| IC50 [nM] | Compound |
| --- | --- |
| 37700 | O=C(O)Cn1nnc(-c2cc(-c3cn(Cc4cc(Br)c(Br)c(Br)c4)nn3)no2)n1 |
| > 100000 | O=C(O)Cn1nnc(-c2cnc(-c3cn(Cc4cc(Cl)c(Cl)c(Cl)c4)nn3)s2)n1 |
| 6310 | O=C(O)Cn1nnc(-c2cncc(-c3cn(Cc4cc(Br)c(Br)c(Br)c4)nn3)c2)n1 |

| Compound | IC50 [nM] |
| --- | --- |
| NC(=O)c1cn(Cc2cc(Br)c(Br)c(Br)c2)nn1 | 760 |

Test system: not listed separately
Assay: Drug uptake in C57BL/6 mouse skin at 10 mg/kg, po after 6 hrs
Format: ADME, organism-based, C57BL6, Zone of skin
Design: dose 10 mg/kg, route oral
Conditions: read-out: Drug uptake

| Compound | concentration at 6 h [nM] |
| --- | --- |
| NC(=O)c1cn(Cc2cc(Br)c(Br)c(Br)c2)nn1 | 740 |

Test system: not listed separately
Assay: Inhibition of mouse SCD
Conditions: not given

| IC50 [nM] | Compound |
| --- | --- |
| 10 | O=C(O)Cn1nnc(-c2cc(-c3cn(Cc4cc(Br)c(Br)c(Br)c4)nn3)no2)n1 |

Test system: not listed separately
Assay: Drug uptake in C57BL/6 mouse plasma at 10 mg/kg, po after 6 hrs
Format: ADME, organism-based, C57BL6
Design: dose 10 mg/kg, route oral
Conditions: read-out: Drug uptake

| Compound | concentration at 6 h [nM] |
| --- | --- |
| NC(=O)c1cn(Cc2cc(Br)c(Br)c(Br)c2)nn1 | 740 |

Test system: not listed separately
Assay: Drug uptake in C57BL/6 mouse liver at 30 mg/kg, po after 3 hrs
Format: ADME, organism-based, C57BL6
Design: dose 30 mg/kg, route oral
Conditions: read-out: Drug uptake

| concentration at 3 h [nM] | Compound |
| --- | --- |
| 8400 | O=C(O)Cn1nnc(-c2cc(-c3cn(Cc4cc(Br)c(Br)c(Br)c4)nn3)no2)n1 |
| 4100 | O=C(O)Cn1nnc(-c2cnc(-c3cn(Cc4cc(Cl)c(Cl)c(Cl)c4)nn3)s2)n1 |
| 900 | O=C(O)Cn1nnc(-c2cncc(-c3cn(Cc4cc(Br)c(Br)c(Br)c4)nn3)c2)n1 |

| Compound | concentration at 3 h [nM] |
| --- | --- |
| NC(=O)c1cn(Cc2cc(Br)c(Br)c(Br)c2)nn1 | 14000 |

Test system: Nucleic Acid
Assay: Ratio of drug uptake in liver to skin of C57BL/6 mouse at 10 mg/kg, po after 6 hrs
Format: ADME, organism-based, C57BL6
Design: dose 10 mg/kg, route oral
Conditions: in vivo

| Compound | Ratio |
| --- | --- |
| NC(=O)c1cn(Cc2cc(Br)c(Br)c(Br)c2)nn1 | 3.6 |

Test system: Mus musculus
Assay: Inhibition of SCD in C57BL/6 mouse liver assessed as conversion of [1-(14)C]-stearic acid to [1-(14)C]-oleic acid at 30 mg/kg, po after 3 hrs
Format: functional
Conditions: not given

| Compound | inhibition |
| --- | --- |
| O=C(O)Cn1nnc(-c2cnc(-c3cn(Cc4cc(Cl)c(Cl)c(Cl)c4)nn3)s2)n1 | inactive |
| O=C(O)Cn1nnc(-c2cncc(-c3cn(Cc4cc(Br)c(Br)c(Br)c4)nn3)c2)n1 | inactive |

Same assay, conditions: C57BL/6, Liver

| Compound | inhibition in vivo at 30 mg/kg [%] |
| --- | --- |
| O=C(O)Cn1nnc(-c2cc(-c3cn(Cc4cc(Br)c(Br)c(Br)c4)nn3)no2)n1 | 30 |

Target: T1, Acyl-CoA desaturase 1
Assay: Inhibition of SCD in rat hepatocytes assessed as conversion of [14C]-stearic acid to [14C]-oleic acid preincubated for 15 mins measured after 1 hrs by scintillation counting
Format: cell-based, Hepatocyte
Conditions: not given

| IC50 [nM] | Compound |
| --- | --- |
| 212 | O=C(O)Cn1nnc(-c2cc(-c3cn(Cc4cc(Br)c(Br)c(Br)c4)nn3)no2)n1 |
| 975 | O=C(O)Cn1nnc(-c2cnc(-c3cn(Cc4cc(Cl)c(Cl)c(Cl)c4)nn3)s2)n1 |
| 694 | O=C(O)Cn1nnc(-c2cncc(-c3cn(Cc4cc(Br)c(Br)c(Br)c4)nn3)c2)n1 |

| Compound | IC50 [nM] |
| --- | --- |
| NC(=O)c1cn(Cc2cc(Br)c(Br)c(Br)c2)nn1 | 10100 |

Test system: not listed separately
Assay: Drug uptake in C57BL/6 mouse harderian glands at 10 mg/kg, po after 6 hrs
Format: ADME, organism-based, C57BL6, Harderian gland
Design: dose 10 mg/kg, route oral
Conditions: read-out: Drug uptake

| Compound | concentration at 6 h [nM] |
| --- | --- |
| NC(=O)c1cn(Cc2cc(Br)c(Br)c(Br)c2)nn1 | 6630 |

Test system: Mus musculus
Assay: Inhibition of SCD in C57BL/6 mouse liver assessed as conversion of [1-(14)C]-stearic acid to [1-(14)C]-oleic acid at 10 mg/kg, po after 3 hrs
Format: functional
Conditions: C57BL/6, Liver

| Compound | inhibition in vivo at 10 mg/kg [%] |
| --- | --- |
| NC(=O)c1cn(Cc2cc(Br)c(Br)c(Br)c2)nn1 | 46 |
